Our source for the IC50, Activity and inhibition in vivo values is ChEMBL document CHEMBL4765299 (Eur J Med Chem, 2020).

The source made the active and inactive calls. The calls are words filed in the database; no cut-off is given here.

The nature of experiment [1]: against A against n against t against i against p against r against o against l against i against f against e against r against a against t against i against v against e against a against c against t against i against v against i against t against y against a against g against a against i against n against s against t against h against u against m against a against n against K against 5 against 6 against 2 against c against e against l against l against s against a against s against s against e against s against s against e against d against a against s against r against e against d against u against c against t against i against o against n against i against n against c against e against l against l against v against i against a against b against i against l against i against t against y against m against e against a against s against u against r against e against d against a against f against t against e against r against 7 against 2 against h against r against s against b against y against M against T against T against a against s against s against a against y against. Type of experiment: functional, tissue-based, Homo sapiens. As to conditions: k562.

Experiment [2] in a line: against C against y against t against o against t against o against x against i against c against i against t against y against a against g against a against i against n against s against t against h against u against m against a against n against H against F against L against - against 1 against c against e against l against l against s against a against s against s against e against s against s against e against d against a against s against r against e against d against u against c against t against i against o against n against i against n against c against e against l against l against v against i against a against b against i against l against i against t against y against m against e against a against s against u against r against e against d against a against f against t against e against r against 7 against 2 against h against r against s against b against y against M against T against T against a against s against s against a against y against. Type of experiment: ADME, tissue-based. The settings on record: Homo sapiens, HFL1.

Experiment [3] is described as follows: Inhibition of porcine brain tubulin polymerization assessed as inhibition of microtubule assembly by measuring decrease in absorbance measured for 60 mins by fluorescence based analysis. Type of experiment: tissue-based, Sus scrofa.
Experiment [4] concerns K562. Description: Induction of mitochondrial membrane potential depolarization in human K562 cells assessed proportion of cells with collapsed MMP at 5 nM measured after 48 hrs by JC-1 staining based flow cytometry (reference value: 1.57%). Type of experiment: functional. A general note: In flow cytometry, cells or beads pass a laser one at a time.
The test system of experiment [5] is K562. Description: Anti-microtubule activity in human K562 cells assessed as disruption of microtubule network in cytoplasm incubated for 24 hrs by immunofluorescence assay. Type of experiment: functional, cell-based. As to conditions: dose 5-20 nM.
Experiment [6] relates to K562. Description: Induction of apoptosis in human K562 cells assessed as early apoptotic cells at 5 nM incubated for 48 hrs by AnnexinV-FITC/propidium iodide staining based flow cytometry analysis (reference value: 1.47%). Type of experiment: functional.
For experiment [7], the system named is K562. The experiment is described as follows: Induction of apoptosis in human K562 cells assessed as early apoptotic cells at 10 nM incubated for 48 hrs by AnnexinV-FITC/propidium iodide staining based flow cytometry analysis (reference value: 1.47%). Type of experiment: functional.
In experiment [8] the test system is K562. The experiment is described as follows: Induction of apoptosis in human K562 cells assessed as early apoptotic cells at 20 nM incubated for 48 hrs by AnnexinV-FITC/propidium iodide staining based flow cytometry analysis (reference value: 1.47%). Type of experiment: functional.
The subject of experiment [9] is K562. Description: Induction of apoptosis in human K562 cells assessed as late apoptotic cells at 20 nM incubated for 48 hrs by AnnexinV-FITC/propidium iodide staining based flow cytometry analysis (reference value: 1.78%). Type of experiment: functional.
Experiment [10] relates to K562. Description: Induction of apoptosis in human K562 cells incubated for 48 hrs by AnnexinV-FITC/propidium iodide staining based flow cytometry. Type of experiment: functional, cell-based. As to conditions: dose 5-20 nM.
Experiment [11] concerns HUVEC. Description: Inhibition of cell migration in HUVEC assessed as wound closure at 5 nM after 24 hrs by scratch wound healing assay (reference value: 76.3%). Type of experiment: functional, Homo sapiens. The arrangement: scale not given: the % may be the effect or the level left.
Experiment [12] deals with HUVEC. The experiment is described as follows: Inhibition of cell migration in HUVEC assessed as wound closure at 20 nM after 24 hrs by scratch wound healing assay (reference value: 76.3%). Type of experiment: functional, Homo sapiens. The arrangement: scale not given: the % may be the effect or the level left.
Experiment [13] has as its system HUVEC. The experiment is described as follows: Anti-angiogenesis activity in HUVEC assessed as inhibition of capillary-like tube formation at 10 nM incubated for 6 hrs by Matrigel-based optical microscopy. Type of experiment: functional, cell-based. The settings on record: Homo sapiens.
Experiment [14] concerns H22. The experiment is described as follows: Anti-tumor activity against mouse H22 cells allografted in ICR mice assessed as reduction in tumor weight at 30 mg/kg, iv administered daily for 21 days. Type of experiment: functional. As to conditions: 504 h, time 21 day.
Experiment [15] has as its system K562. The experiment is described as follows: Induction of cell cycle arrest in human K562 cells assessed as accumulation at G1 phase at 5 nM incubated for 48 hrs by propidium iodide/RNase staining based flow cytometry (reference value: 38.83%). Type of experiment: functional.
Experiment [16] deals with K562. Description: Induction of cell cycle arrest in human K562 cells assessed as accumulation at G1 phase at 10 nM incubated for 48 hrs by propidium iodide/RNase staining based flow cytometry (reference value: 38.83%). Type of experiment: functional.
The test system of experiment [17] is K562. The experiment is described as follows: Induction of cell cycle arrest in human K562 cells assessed as accumulation at G2/M phase at 10 nM incubated for 48 hrs by propidium iodide/RNase staining based flow cytometry (reference value: 7.7%). Type of experiment: functional.
The subject of experiment [18] is K562. The experiment is described as follows: Induction of mitochondrial membrane potential depolarization in human K562 cells assessed proportion of cells with intact MMP at 10 nM measured after 48 hrs by JC-1 staining based flow cytometry (reference value: 98.12%). Type of experiment: functional.
Experiment [19] has as its system K562. Description: Induction of mitochondrial membrane potential depolarization in human K562 cells measured after 48 hrs by JC-1 staining based flow cytometry. Type of experiment: functional, cell-based. As to conditions: dose 5-20 nM.
Experiment [20] concerns H22. The experiment is described as follows: Anti-tumor activity against mouse H22 cells allografted in iv dosed ICR mice assessed as reduction in tumor weight administered daily for 21 days. Type of experiment: functional, organism-based. The settings on record: dose 15-30 mg/kg/day, time 21.0 day.

As to `C=C(c1cc(Cl)nc(NC)c1)c1ccc(OC)c(O)c1`, the IC50 came to 10 nM in [1], 118 nM in experiment [2] and 3.15 µM in [3]. The Activity in experiment [4] is 13.44%; in experiment [5], “Dose-dependent effect”; in experiment [6], 6.6%; in experiment [7], 37.25%; in experiment [8], 43.83%; in experiment [9], 18.43%. In addition, the Activity entry in experiment [10] was “Dose-dependent effect”; in experiment [11] it was 67.6%; in [12], 49.2%; in experiment [15] it was 39.94%; in [16], 38.45%; in experiment [17], 11.54%. For the same compound, the Activity in [18] was 79.83%; in experiment [19], “Dose-dependent effect”; in experiment [20] it was “Dose-dependent effect”. Besides, the outcome in experiment [13] was Active. Further, the inhibition in vivo at 30 mg/kg/day in experiment [14] stood at 68.7%.

The IC50 is the midpoint of a concentration-inhibition curve. Usually inhibition in vivo stands for the relative decrease from the control value, in per cent.
